EP4603105A1, “PHARMACEUTICAL COMPOSITION CONTAINING CYCLIC COMPOUND HAVING SELECTIVE KRAS INHIBITORY EFFECT AGAINST HRAS AND NRAS” (CHUGAI SEIYAKU KABUSHIKI KAISHA, priority 2022, dated 2024)
Where two headings read alike, the source gives them in different places. Where a SMILES comes first, the peptide text is derived from it. Bridges are numbered along the chain shown (N, C = ends). [ ]: non-standard residue; d: D form. The star is where a group is joined. hPhe(3,5-F2-4-CF3) = N[C@@H](CCc1cc(F)c(C(F)(F)F)c(F)c1)C(=O)O; hPhe(3-Cl-4-CF3) = N[C@@H](CCc1ccc(C(F)(F)F)c(Cl)c1)C(=O)O; NPrPhe(4-CF3) = CCCN[C@@H](Cc1ccc(C(F)(F)F)cc1)C(=O)O; NMeGly(cPent) = CN[C@H](C(=O)O)C1CCCC1; Pro(4,4-Me2) = CC1(C)CN[C@H](C(=O)O)C1; Ac4c(3,3-F2) = NC1(C(=O)O)CC(F)(F)C1; NMeD = CN[C@@H](CC(=O)O)C(=O)O; NMeL = CN[C@@H](CC(C)C)C(=O)O; Morpholide = C1CN(*)CCO1; Ac5c = NC1(C(=O)O)CCCC1; Aze = O=C(O)[C@@H]1CCN1; NEtG = CCNCC(=O)O; Sar = CNCC(=O)O

Experiments:
[1] = target: GDP-bound NRAS wild-type protein (Homo sapiens, UniProt P01111); assay: Binding to NRAS by surface plasmon resonance (SPR), KD and KD ratio to KRAS
Summary of the method: (§1)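 Compound binding is evaluated by SPR single-cycle kinetics, with concentrations added intermittently from low to high for 75 s each. Target surfaces carry GDP-loaded biotinylated Avi-RAS at about 100–300 RU, regenerated after each cycle; temperature 30°C. A 1:1 binding model gives KD.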

[2] = tested on: human lung cancer strain NCI-H441; assay type: cell-based
Summary of the method: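 Proliferation was scored by […] measured after the reagent was added to cultures kept at 37°C in 5% carbon dioxide.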

HRAS wild-type protein = HRAS wild-type protein (Homo sapiens, UniProt P01112); assay: Binding to HRAS by surface plasmon resonance (SPR), KD and KD ratio to KRAS
Summary of the method: as §1

[3] = ratio of the KD value with respect to GDP-bound NRAS wild-type protein to the KD value with respect to KRAS
[4] = ratio of the KD value with respect to HRAS wild-type protein to the KD value with respect to KRAS
[5] = ratio of KD for GDP-bound NRAS wild-type protein to KD for KRAS
[6] = ratio of KD for HRAS wild-type protein to KD for KRAS
[7] = NCI-H441 cells, 4 days, CellTiter-Glo, read-out: NCl-H441 IC50

Sequence of GDP-bound NRAS wild-type protein (P01111 whole entry): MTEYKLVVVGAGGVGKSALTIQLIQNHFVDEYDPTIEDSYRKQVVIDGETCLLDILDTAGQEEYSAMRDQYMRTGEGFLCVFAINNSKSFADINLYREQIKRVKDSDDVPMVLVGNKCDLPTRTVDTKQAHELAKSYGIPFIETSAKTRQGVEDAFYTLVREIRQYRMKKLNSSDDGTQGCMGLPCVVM
Sequence of HRAS wild-type protein (P01112 whole entry): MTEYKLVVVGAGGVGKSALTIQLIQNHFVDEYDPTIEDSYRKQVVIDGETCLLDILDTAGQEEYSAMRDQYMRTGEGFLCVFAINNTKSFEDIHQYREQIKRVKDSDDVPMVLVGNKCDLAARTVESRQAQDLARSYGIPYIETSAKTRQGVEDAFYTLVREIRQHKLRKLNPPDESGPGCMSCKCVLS

Compound	IC50 [2] [nM]	NRAS /KRAS [1, 3]	HRAS /KRAS (HRAS wild-type protein; [4])	NRAS /KRAS ([1]; ratio of KD value for GDP-bound NRAS wild-type protein to KD value for KRAS (SPR))	HRAS /KRAS (HRAS wild-type protein; ratio of KD value for HRAS wild-type protein to KD value for KRAS (SPR))	NRAS /KRAS [1, 5]	HRAS /KRAS (HRAS wild-type protein; [6])	IC50 [2, 7] [nM]
CCO[C@@H]1C[C@H]2C(=O)NC3(CC(C)(C)C3)C(=O)N(C)[C@@H](C3CCCC3)C(=O)N(C)[C@H](C(=O)N(CC)CC)CC(=O)N(C)[C@@H](CC)C(=O)N[C@@H]([C@@H](C)CC)C(=O)N(C)CC(=O)N(C)[C@H]3C/C=C\CCN(C3=O)[C@@H](Cc3ccc(C)cc3)C(=O)N(C)CC(=O)N[C@@H](CCc3ccc(C(F)(F)F)c(Cl)c3)C(=O)N2C1 [PP1883]	24	–	–	A (a compound having 10 or more and less than 20 is denoted as A)	A (a compound having 10 or more and less than 20 is denoted as A)	–	–	–
CCO[C@@H]1C[C@H]2C(=O)NC3(CCC3)C(=O)N(C)[C@@H](C3CCCC3)C(=O)N(C)[C@H](C(=O)N3CCOCC3)CC(=O)N(C)[C@@H](CC(C)C)C(=O)N[C@@H]([C@@H](C)CC)C(=O)N3CC[C@H]3C(=O)N(C)[C@H]3CC(C)=CCN(C3=O)[C@@H](Cc3ccc(C(F)(F)F)cc3)C(=O)N(C)CC(=O)N[C@@H](CCc3cc(F)c(C(F)(F)F)c(F)c3)C(=O)N2C1 [PP1040]	18.7	–	–	–	–	C (A compound having a KD ratio of 0.1 or more and less than 3 is denoted as C)	C (A compound having a KD ratio of 0.1 or more and less than 3 is denoted as C)	–
CCC[C@H]1C(=O)N[C@@H]([C@@H](C)CC)C(=O)N(C)CC(=O)N(C)[C@H]2C/C=C\CCN(C2=O)[C@@H](Cc2ccc(C(F)(F)F)cc2)C(=O)N(C)CC(=O)N[C@@H](CCc2ccc(CC)c(OC)c2)C(=O)N2C[C@H](OCC)C[C@H]2C(=O)NC2(CC(C)(C)C2)C(=O)N(C)[C@@H](C2CCCC2)C(=O)N(C)[C@H](C(=O)N(C)C)CC(=O)N1C [PP2869]	–	–	–	–	–	A (a compound having 10 or more and less than 20 is denoted as A)	A (a compound having 10 or more and less than 20 is denoted as A)	37.6
CCCN1C(=O)CN(C)C(=O)[C@@H]2CCN2C(=O)[C@H]([C@@H](C)CC)NC(=O)[C@H](CC(C)C)N(C)C(=O)C[C@@H](C(=O)N2CCOCC2)N(C)C(=O)[C@H](C2CCCC2)N(C)C(=O)C2(CC(F)(F)C2)NC(=O)[C@@H]2CCCN2C(=O)[C@H](CCc2cc(F)c(C(F)(F)F)c(F)c2)NC(=O)CN(C)C(=O)[C@@H]1Cc1ccc(C(F)(F)F)cc1 [PP0783] ([NMeL]I[Aze][Sar][NPrPhe(4-CF3)][Sar][hPhe(3,5-F2-4-CF3)]P[Ac4c(3,3-F2)][NMeGly(cPent)][NMeD]-Morpholide; lactam N-11)	122	–	–	–	–	B (a compound having 3 or more and less than 10 is denoted as B)	B (a compound having 3 or more and less than 10 is denoted as B)	–
CCO[C@@H]1C[C@H]2C(=O)NC3(CC(C)(C)C3)C(=O)N(C)[C@@H](C(CC)CC)C(=O)N(C)[C@H](C(=O)N(C)C)CC(=O)N(C)[C@H]3CCCC/C=C/c4ccc(cc4)C[C@@H](C(=O)N(C)CC(=O)N[C@@H](CCc4ccc(Cl)c(Cl)c4)C(=O)N2C1)N1CC/C=C\C[C@@H](C1=O)N(C)C(=O)CN(C)C(=O)[C@H]([C@@H](C)CC)NC3=O [PP3045]	15.9	–	–	–	–	AA (a compound having 20 or more is denoted as AA)	A (a compound having 10 or more and less than 20 is denoted as A)	–
CCO[C@@H]1C[C@H]2C(=O)NC3(CC(C)(C)C3)C(=O)N(C)[C@@H](C(CC)CC)C(=O)N(C)[C@H](C(=O)N(C)C)CC(=O)N(C)[C@@H](C)C(=O)N[C@@H]([C@@H](C)CC)C(=O)N(C)CC(=O)N(C)[C@H]3C/C=C\CCN(C3=O)[C@@H](Cc3ccc(C)cc3)C(=O)N(C)CC(=O)N[C@@H](CCc3ccc(Cl)c(Cl)c3)C(=O)N2C1 [PP2186]	33.7	AA (a compound having 20 or more is denoted as AA)	A (a compound having 10 or more and less than 20 is denoted as A)	–	–	–	–	–
CCC[C@H]1C(=O)N[C@@H]([C@@H](C)CC)C(=O)N(C)CC(=O)N(C)[C@H]2C/C=C\CCN(C2=O)[C@@H](Cc2ccc(C(F)(F)F)cc2)C(=O)N(C)CC(=O)N[C@@H](CCc2cc(C)c(C(F)F)c(C)c2)C(=O)N2C[C@H](OCC)C[C@H]2C(=O)NC2(CC(C)(C)C2)C(=O)N(C)[C@@H](C2CCCC2)C(=O)N(C)[C@H](C(=O)N(C)C)CC(=O)N1C [PP2857]	–	–	–	–	–	A (a compound having 10 or more and less than 20 is denoted as A)	A (a compound having 10 or more and less than 20 is denoted as A)	61.6

The remaining molecules from weak to strong by IC50 [2], led by results:

IC50 [2] [nM]	Compound	NRAS /KRAS [1, 3]	HRAS /KRAS (HRAS wild-type protein; [4])	NRAS /KRAS ([1]; ratio of KD value for GDP-bound NRAS wild-type protein to KD value for KRAS (SPR))	HRAS /KRAS (HRAS wild-type protein; ratio of KD value for HRAS wild-type protein to KD value for KRAS (SPR))	NRAS /KRAS [1, 5]	HRAS /KRAS (HRAS wild-type protein; [6])	IC50 [2, 7] [nM]
15.8	CCO[C@@H]1C[C@H]2C(=O)NC3(CCC3)C(=O)N(C)[C@@H](C3CCCC3)C(=O)N(C)[C@H](C(=O)N3CCOCC3)CC(=O)N(C)[C@@H](CC)C(=O)N[C@@H]([C@@H](C)CC)C(=O)N(C)CC(=O)N(C)[C@H]3C/C=C\CCN(C3=O)[C@@H](Cc3ccc(C(F)(F)F)cc3)C(=O)N(C)CC(=O)N[C@@H](CCc3cc(F)c(C(F)(F)F)c(F)c3)C(=O)N2C1 [PP1092]	–	–	–	–	A (a compound having 10 or more and less than 20 is denoted as A)	A (a compound having 10 or more and less than 20 is denoted as A)	–
9.9	CCCOC[C@H]1C(=O)N[C@@H]([C@@H](C)CC)C(=O)N(C2CC2)CC(=O)N(C)[C@H]2C/C=C\CCN(C2=O)[C@@H](Cc2ccc(C)cc2)C(=O)N(C)CC(=O)N[C@@H](CCc2ccc(C(F)(F)F)c(OC)c2)C(=O)N2C[C@H](OCC)C[C@H]2C(=O)N(C)C2(CCC2)C(=O)N(C)[C@@H](C(CC)CC)C(=O)N(C)[C@H](C(=O)N(C)C)CC(=O)N1C [PP2327]	A (a compound having 10 or more and less than 20 is denoted as A)	A (a compound having 10 or more and less than 20 is denoted as A)	–	–	–	–	–
8.4	CCCN1C(=O)CN(C)C(=O)CN(CC)C(=O)[C@H]([C@@H](C)CC)NC(=O)[C@H](CC(C)C)N(C)C(=O)C[C@@H](C(=O)N2CCOCC2)N(C)C(=O)[C@H](C2CCCC2)N(C)C(=O)C2(CCCC2)NC(=O)[C@@H]2CC(C)(C)CN2C(=O)[C@H](CCc2ccc(C(F)(F)F)c(Cl)c2)NC(=O)CN(C)C(=O)[C@@H]1Cc1ccc(C(F)(F)F)cc1 [PP0450] ([NMeL]I[NEtG][Sar][NPrPhe(4-CF3)][Sar][hPhe(3-Cl-4-CF3)][Pro(4,4-Me2)][Ac5c][NMeGly(cPent)][NMeD]-Morpholide; lactam N-11)	B (a compound having 3 or more and less than 10 is denoted as B)	C (A compound having a KD ratio of 0.1 or more and less than 3 is denoted as C)	–	–	–	–	–
4.8	CCO[C@@H]1C[C@H]2C(=O)NC3(CC(C)(C)C3)C(=O)N(C)[C@@H](C3CCCC3)C(=O)N(C)[C@H](C(=O)N(C)C)CC(=O)N(C)[C@@H](CC(F)(F)F)C(=O)N[C@@H]([C@@H](C)CC)C(=O)N(C)CC(=O)N(C)[C@H]3C/C=C\CCN(C3=O)[C@@H](Cc3ccc(C(F)(F)F)cc3)C(=O)N(C)CC(=O)N[C@@H](CCc3ccc(Cl)c(Cl)c3)C(=O)N2C1 [PP2832]	–	–	–	–	A (a compound having 10 or more and less than 20 is denoted as A)	A (a compound having 10 or more and less than 20 is denoted as A)	–
3.1	CC[C@H](C)[C@@H]1NC(=O)[C@H](CC(C)C)N(C)C(=O)C[C@@H](C(=O)N(C)C)N(C)C(=O)[C@H](C2CCCC2)N(C)C(=O)C2(CCC2)NC(=O)[C@@H]2CCCN2C(=O)[C@H](CCc2cc(F)c(C(F)(F)F)c(F)c2)NC(=O)CN(C)C(=O)[C@H](Cc2ccc(C(F)(F)F)cc2)N2CCCC[C@@H](C2=O)N(C)C(=O)CN(C)C1=O [PP0574]	C (A compound having a KD ratio of 0.1 or more and less than 3 is denoted as C)	B (a compound having 3 or more and less than 10 is denoted as B)	–	–	–	–	–
